Assays:
Format in all cases: in vivo
[1] = tested on: Amaranthus retoflexus (AMARE); assay: B1 Post-emergence efficacy Test 1; conditions: post-emergence application, 1000 g/ha, evaluated after 13 days
Description: (§1) Seeds of a variety of test species are sown in standard soil in pots:—Solanum nigrum (SOLNI), Amaranthus retoflexus (AMARE), Setaria faberi (SETFA), Alopecurus myosuroides (ALOMY), Echinochloa crus-galli (ECHCG), Ipomoea hederacea (IPOHE), Lolium perenne (LOLPE). After 8 days cultivation (post-emergence) under controlled conditions in a glasshouse (at 24/16° C., day/night; 14 hours light; 65% humidity), the plants are sprayed with an aqueous spray solution derived from the formulation of the technical active ingredient in acetone/water (50:50) solution containing 0.5% Tween 20 (polyoxyethylene sorbitan monolaurate, CAS RN 9005-64-5). Compounds are applied at 1000 g/ha. The test plants are then grown in a glasshouse under controlled conditions in a glasshouse (at 24/16° C., day/night; 14 hours light; 65% humidity) and watered twice daily. After 13 days, the test is evaluated for the percentage damage caused to the plant. The biological activities are assessed on a five point scale (5=80-100%; 4=60-79%; 3=40-59%; 2=20-39%; 1=0-19%). A blank value in the table is indicative that the compound was not tested on that species.

[2] = tested on: Echinochloa crus-galli (ECHCG); assay: B1 Post-emergence efficacy Test 1; conditions: post-emergence application, 1000 g/ha, evaluated after 13 days
Description: as §1

[3] = tested on: Ipomoea hederacea (IPOHE); assay: B1 Post-emergence efficacy Test 1; conditions: post-emergence application, 1000 g/ha, evaluated after 13 days
Description: as §1

[4] = tested on: Lolium perenne (LOLPE); assay: B1 Post-emergence efficacy Test 1; conditions: post-emergence application, 1000 g/ha, evaluated after 13 days
Description: as §1

[5] = tested on: Setaria faberi (SETFA); assay: B1 Post-emergence efficacy Test 1; conditions: post-emergence application, 1000 g/ha, evaluated after 13 days
Description: as §1

[6] = tested on: Solanum nigrum (SOLNI); assay: B1 Post-emergence efficacy Test 1; conditions: post-emergence application, 1000 g/ha, evaluated after 13 days
Description: as §1

[7] = tested on: cool season plant species; assay: B2 Post-emergence efficacy Test 2, cool season plant species; conditions: 15 days after application, 0=no damage, 100=total kill
Description: Seeds of a variety of test species (see Table B1) were sown in standard soil in pots. After cultivation for 12 days (post-emergence) under controlled conditions in a glasshouse (at 24/18° C. or 20/16° C., at day/night; 16 hours light; 65% humidity), the plants were sprayed with an aqueous spray solution derived from the formulation of the technical active ingredient dissolved in IF50 (see Table B2 for composition) and adjuvant (Genapol XO80) was added to the spray solution at a rate of 0.2% v/v. [table] [table] After application, the test plants were grown in a glasshouse under controlled conditions (as above) and watered twice daily. Herbicidal activity was evaluated 15 days after application on a 0-100 scale. The results, where 0=no damage to test plant and 100=total kill of test plant are shown below in Tables 6 to 9.

Cc1nn(C)c(=O)c(-c2c(F)ccc(Cl)c2CCc2ccc(F)cc2)c1O [Compound 1.048]
90: Herbicidal activity (0-100 scale) ALOMY ([7]; 500 g/Ha) | Herbicidal activity (0-100 scale) AVEFA ([7]; 250 g/Ha) | Herbicidal activity (0-100 scale) AVEFA ([7]; 500 g/Ha) | Herbicidal activity (0-100 scale) BEAVA ([7]; 125 g/Ha) | Herbicidal activity (0-100 scale) BEAVA ([7]; 250 g/Ha) | Herbicidal activity (0-100 scale) BEAVA ([7]; 500 g/Ha) | Herbicidal activity (0-100 scale) BRSNN ([7]; 15 g/Ha) | Herbicidal activity (0-100 scale) BRSNN ([7]; 30 g/Ha) | Herbicidal activity (0-100 scale) BRSNN ([7]; 60 g/Ha) | Herbicidal activity (0-100 scale) BRSNN ([7]; 125 g/Ha) | Herbicidal activity (0-100 scale) BRSNN ([7]; 250 g/Ha) | Herbicidal activity (0-100 scale) BRSNN ([7]; 500 g/Ha) | Herbicidal activity (0-100 scale) CHEAL ([7]; 250 g/Ha) | Herbicidal activity (0-100 scale) LOLPE ([7]; 60 g/Ha) | Herbicidal activity (0-100 scale) LOLPE ([7]; 125 g/Ha) | Herbicidal activity (0-100 scale) LOLPE ([7]; 250 g/Ha) | Herbicidal activity (0-100 scale) LOLPE ([7]; 500 g/Ha) | Herbicidal activity (0-100 scale) POAAN ([7]; 250 g/Ha) | Herbicidal activity (0-100 scale) POAAN ([7]; 500 g/Ha) | Herbicidal activity (0-100 scale) POLCO ([7]; 60 g/Ha) | Herbicidal activity (0-100 scale) POLCO ([7]; 125 g/Ha) | Herbicidal activity (0-100 scale) POLCO ([7]; 250 g/Ha) | Herbicidal activity (0-100 scale) POLCO ([7]; 500 g/Ha) | Herbicidal activity (0-100 scale) SINAR ([7]; 125 g/Ha) | Herbicidal activity (0-100 scale) SINAR ([7]; 250 g/Ha) | Herbicidal activity (0-100 scale) SINAR ([7]; 500 g/Ha) | Herbicidal activity (0-100 scale) STEME ([7]; 15 g/Ha) | Herbicidal activity (0-100 scale) STEME ([7]; 30 g/Ha) | Herbicidal activity (0-100 scale) STEME ([7]; 60 g/Ha) | Herbicidal activity (0-100 scale) VERPE ([7]; 60 g/Ha)
40: Herbicidal activity (0-100 scale) HORVW ([7]; 125 g/Ha) | Herbicidal activity (0-100 scale) HORVW ([7]; 250 g/Ha) | Herbicidal activity (0-100 scale) LOLPE ([7]; 30 g/Ha) | Herbicidal activity (0-100 scale) SINAR ([7]; 15 g/Ha)
10: Herbicidal activity (0-100 scale) AVEFA ([7]; 15 g/Ha) | Herbicidal activity (0-100 scale) BROTE ([7]; 30 g/Ha) | Herbicidal activity (0-100 scale) HORVW ([7]; 15 g/Ha) | Herbicidal activity (0-100 scale) HORVW ([7]; 30 g/Ha) | Herbicidal activity (0-100 scale) HORVW ([7]; 60 g/Ha) | Herbicidal activity (0-100 scale) KCHSC ([7]; 60 g/Ha) | Herbicidal activity (0-100 scale) TRZAW ([7]; 30 g/Ha)
30: Herbicidal activity (0-100 scale) ALOMY ([7]; 30 g/Ha) | Herbicidal activity (0-100 scale) AVEFA ([7]; 30 g/Ha) | Herbicidal activity (0-100 scale) GALAP ([7]; 30 g/Ha) | Herbicidal activity (0-100 scale) POAAN ([7]; 15 g/Ha) | Herbicidal activity (0-100 scale) POAAN ([7]; 30 g/Ha)
50: Herbicidal activity (0-100 scale) BROTE ([7]; 125 g/Ha) | Herbicidal activity (0-100 scale) GALAP ([7]; 60 g/Ha) | Herbicidal activity (0-100 scale) KCHSC ([7]; 250 g/Ha) | Herbicidal activity (0-100 scale) TRZAW ([7]; 250 g/Ha)
0: Herbicidal activity (0-100 scale) BROTE ([7]; 15 g/Ha) | Herbicidal activity (0-100 scale) KCHSC ([7]; 15 g/Ha) | Herbicidal activity (0-100 scale) KCHSC ([7]; 30 g/Ha) | Herbicidal activity (0-100 scale) TRZAW ([7]; 15 g/Ha)
100: Herbicidal activity (0-100 scale) CHEAL ([7]; 500 g/Ha) | Herbicidal activity (0-100 scale) STEME ([7]; 125 g/Ha) | Herbicidal activity (0-100 scale) STEME ([7]; 250 g/Ha) | Herbicidal activity (0-100 scale) STEME ([7]; 500 g/Ha) | Herbicidal activity (0-100 scale) VERPE ([7]; 250 g/Ha) | Herbicidal activity (0-100 scale) VERPE ([7]; 500 g/Ha)
60: Herbicidal activity (0-100 scale) AVEFA ([7]; 60 g/Ha) | Herbicidal activity (0-100 scale) BROTE ([7]; 250 g/Ha) | Herbicidal activity (0-100 scale) GALAP ([7]; 125 g/Ha) | Herbicidal activity (0-100 scale) GALAP ([7]; 250 g/Ha) | Herbicidal activity (0-100 scale) POLCO ([7]; 15 g/Ha) | Herbicidal activity (0-100 scale) VERPE ([7]; 15 g/Ha)
80: Herbicidal activity (0-100 scale) ALOMY ([7]; 125 g/Ha) | Herbicidal activity (0-100 scale) ALOMY ([7]; 250 g/Ha) | Herbicidal activity (0-100 scale) AVEFA ([7]; 125 g/Ha) | Herbicidal activity (0-100 scale) BEAVA ([7]; 30 g/Ha) | Herbicidal activity (0-100 scale) BEAVA ([7]; 60 g/Ha) | Herbicidal activity (0-100 scale) GALAP ([7]; 500 g/Ha) | Herbicidal activity (0-100 scale) HORVW ([7]; 500 g/Ha) | Herbicidal activity (0-100 scale) KCHSC ([7]; 500 g/Ha) | Herbicidal activity (0-100 scale) POAAN ([7]; 60 g/Ha) | Herbicidal activity (0-100 scale) POAAN ([7]; 125 g/Ha) | Herbicidal activity (0-100 scale) SINAR ([7]; 30 g/Ha) | Herbicidal activity (0-100 scale) SINAR ([7]; 60 g/Ha) | Herbicidal activity (0-100 scale) TRZAW ([7]; 500 g/Ha) | Herbicidal activity (0-100 scale) VERPE ([7]; 30 g/Ha) | Herbicidal activity (0-100 scale) VERPE ([7]; 125 g/Ha)
70: Herbicidal activity (0-100 scale) ALOMY ([7]; 60 g/Ha) | Herbicidal activity (0-100 scale) BEAVA ([7]; 15 g/Ha) | Herbicidal activity (0-100 scale) BROTE ([7]; 500 g/Ha) | Herbicidal activity (0-100 scale) CHEAL ([7]; 125 g/Ha) | Herbicidal activity (0-100 scale) POLCO ([7]; 30 g/Ha)
5 (5=80-100%): percentage damage caused to the plant, five point scale, AMARE [1] | percentage damage caused to the plant, five point scale, ECHCG [2] | percentage damage caused to the plant, five point scale, IPOHE [3] | percentage damage caused to the plant, five point scale, LOLPE [4] | percentage damage caused to the plant, five point scale, SETFA [5] | percentage damage caused to the plant, five point scale, SOLNI [6]
20: Herbicidal activity (0-100 scale) ALOMY ([7]; 15 g/Ha) | Herbicidal activity (0-100 scale) BROTE ([7]; 60 g/Ha) | Herbicidal activity (0-100 scale) GALAP ([7]; 15 g/Ha) | Herbicidal activity (0-100 scale) KCHSC ([7]; 125 g/Ha) | Herbicidal activity (0-100 scale) LOLPE ([7]; 15 g/Ha) | Herbicidal activity (0-100 scale) TRZAW ([7]; 60 g/Ha) | Herbicidal activity (0-100 scale) TRZAW ([7]; 125 g/Ha)

Reference: US12162840B2, “Herbicidal compositions” (SYNGENTA PARTICIPATIONS AG, priority 2018, dated 2024)
